From PubChem BioAssay (NCI) come the findings set out here.

Test systems include CCRF-CEM leukemia; DU-145 prostate; MCF7 breast; MOLT-4 leukemia; OVCAR-8 ovarian; RPMI-8226 leukemia; SF-539 CNS; SK-OV-3 ovarian; U251 CNS; MDA-MB-231 breast.
Holding throughout (assay): NCI tumour cell line growth inhibition, 48 h

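A five-concentration, 48-hour dose response in 96-well plates underlies each endpoint, interpolated linearly between surrounding concentrations. TGI: concentration producing complete growth inhibition.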

As for `COc1ccc2c(c1)c(=O)c1c(NCCCN(C)C)ccc3ncn2c31`, the TGI in the test with CCRF-CEM leukemia is 45.3 µM; with DU-145 prostate, 18.7 µM; in the test on MCF7 breast, 8.4 µM; with MOLT-4 leukemia, 13.9 µM; with OVCAR-8 ovarian, 9.4 µM; with RPMI-8226 leukemia, over 27.7 µM. Also, the TGI was 17 µM in the test on SF-539 CNS, 22.1 µM with SK-OV-3 ovarian and 5.93 µM in the test with U251 CNS.
Turning to `CC(C)(C)C(=O)CC(=O)C(F)(F)C(F)(F)C(F)(F)F.[Ag]`, the TGI with CCRF-CEM leukemia is 43.8 µM; with DU-145 prostate, over 100 µM; with MDA-MB-231 breast it was 30.1 µM; in the test with MOLT-4 leukemia, 44.8 µM; with OVCAR-8 ovarian it was 49.4 µM; in the test on RPMI-8226 leukemia it was 44.5 µM. The TGI was found to be 57.6 µM in the test on SF-539 CNS, 44.5 µM in the test with SK-OV-3 ovarian and 52.8 µM in the test on U251 CNS.
Regarding `COc1ccc2c(c1)C=C(C(C)(C)C)NS2(=O)=O`, the TGI in the test with CCRF-CEM leukemia, in the test on MOLT-4 leukemia, in the test with OVCAR-8 ovarian, in the test on SF-539 CNS, in the test on SK-OV-3 ovarian and in the test with U251 CNS was over 100 µM each time.
For `CCOC(=O)c1csc(-c2nc(CCNC(=O)c3ccccc3)sc2Cl)n1`, the TGI with CCRF-CEM leukemia, in the test with DU-145 prostate, with MCF7 breast, in the test on MOLT-4 leukemia, with OVCAR-8 ovarian and in the test with RPMI-8226 leukemia was over 100 µM each time. Moreover, the TGI in the test on SF-539 CNS, in the test on SK-OV-3 ovarian and in the test with U251 CNS was over 100 µM in each case.
On to `CC(c1ccccc1)C(O)S(=O)(=O)O` (stereo not drawn), for which the TGI with CCRF-CEM leukemia, in the test with MOLT-4 leukemia, with OVCAR-8 ovarian, in the test with RPMI-8226 leukemia, with SF-539 CNS and in the test with SK-OV-3 ovarian was over 100 µM in each case. The compound further had a TGI in the test on U251 CNS of over 100 µM.
Regarding `CC1(C)/C(=N\Nc2ccc([N+](=O)[O-])cc2[N+](=O)[O-])C2CCC1C2` (stereo not drawn), the TGI with DU-145 prostate, with MCF7 breast, in the test on MOLT-4 leukemia, in the test with OVCAR-8 ovarian, in the test on RPMI-8226 leukemia and with SK-OV-3 ovarian was over 100 µM each time. In the test with U251 CNS, this compound showed a TGI of over 100 µM.
As to `CC(C)(C)OC(=O)N1CCC(NC(=O)NC2CCN(C(=O)OC(C)(C)C)CC2)CC1`, the TGI in the test on CCRF-CEM leukemia, with MCF7 breast, in the test with MDA-MB-231 breast, in the test with OVCAR-8 ovarian, with RPMI-8226 leukemia and in the test on SF-539 CNS was over 100 µM in each case. Besides, the TGI in the test on U251 CNS was over 100 µM.
In the case of `CCOC(=O)/C=C/c1c[nH]c(=O)[nH]c1=O`, the TGI with CCRF-CEM leukemia was over 75 µM; with MCF7 breast it was over 75 µM; with MOLT-4 leukemia, over 48.7 µM; in the test on OVCAR-8 ovarian, over 75 µM; with RPMI-8226 leukemia, over 57 µM; in the test with SF-539 CNS it was over 75 µM. Further, the TGI with SK-OV-3 ovarian was over 61.2 µM; in the test with U251 CNS, over 75 µM.
Take `COc1cc(OC)cc(C(=O)Cc2c(C(=O)c3ccccc3)c3ccccc3n2C(=O)c2ccccc2)c1`: the TGI is over 100 µM in the test on CCRF-CEM leukemia; over 100 µM in the test on MOLT-4 leukemia; over 100 µM in the test with OVCAR-8 ovarian; over 100 µM in the test on RPMI-8226 leukemia; over 100 µM in the test on SF-539 CNS; 99.8 µM in the test with SK-OV-3 ovarian. Also, in the test with U251 CNS, the TGI is over 100 µM.
For `Cn1c(O)c(C=Nc2ccc(Cl)cc2Cl)c(=O)n(C)c1=O`, the TGI in the test on CCRF-CEM leukemia, in the test on MCF7 breast, in the test with MDA-MB-231 breast, in the test on MOLT-4 leukemia, with OVCAR-8 ovarian and in the test on RPMI-8226 leukemia was over 100 µM in each case. Further, the TGI in the test with SF-539 CNS, in the test on SK-OV-3 ovarian and with U251 CNS was over 100 µM each time.
`NS(=O)(=O)c1ccc(N2C(=O)C(=O)N(c3ccccc3)C2=S)cc1`: the TGI in the test on CCRF-CEM leukemia, in the test with DU-145 prostate, with MDA-MB-231 breast, in the test on MOLT-4 leukemia, in the test on OVCAR-8 ovarian and with RPMI-8226 leukemia was over 100 µM throughout. The TGI with SF-539 CNS, in the test on SK-OV-3 ovarian and in the test on U251 CNS was over 100 µM each time.
For the compound `COc1ccc(S(=O)(=O)Nc2ccc(-c3csc(N4C(=O)/C(=C/c5cccs5)N=C4c4ccccc4)n3)cc2)cc1Cl`, the TGI with DU-145 prostate, in the test with MCF7 breast, with MDA-MB-231 breast, with MOLT-4 leukemia, with OVCAR-8 ovarian and with SF-539 CNS was over 100 µM in each case. In addition, the TGI in the test on SK-OV-3 ovarian and in the test with U251 CNS was over 100 µM throughout.
Turning to `COc1ccc(/C=C2/SC(c3c(O)ccc4ccccc34)N(NC(=O)CCCCCCCCC(=O)NN3C(=O)/C(=C\c4ccc(OC)c(OC)c4)SC3c3c(O)ccc4ccccc34)C2=O)cc1OC` (stereo not drawn), the TGI in the test on DU-145 prostate was over 100 µM; in the test on MCF7 breast, over 100 µM; in the test with MDA-MB-231 breast, over 91.7 µM; in the test with MOLT-4 leukemia, 2.9 µM; in the test with OVCAR-8 ovarian, 20.2 µM; with SF-539 CNS, 46 µM. The figures for the TGI in the test on SK-OV-3 ovarian and with U251 CNS were over 52.9 µM and 96.8 µM, respectively.
On to `C=CC(C)(C)n1cc(C2=C(O)C(=O)C(c3c(CC=C(C)C)[nH]c4ccccc34)=C(O)C2=O)c2ccccc21`, for which the TGI in the test on CCRF-CEM leukemia was found to be 8.96 µM; with DU-145 prostate, 5.46 µM; with MDA-MB-231 breast, 7.78 µM; in the test with MOLT-4 leukemia, 9.51 µM; in the test with OVCAR-8 ovarian it was 4.57 µM; with SK-OV-3 ovarian it was 5.41 µM. For the same compound, the TGI in the test on U251 CNS is 3.33 µM.
Consider `CCOC(=O)C1=C(C)N(C2OC(COC(C)=O)C(OC(C)=O)C(OC(C)=O)C2OC(C)=O)C(=O)NC1c1ccccc1` (stereo not drawn), for which the TGI with CCRF-CEM leukemia, in the test with MOLT-4 leukemia, in the test on OVCAR-8 ovarian, in the test with RPMI-8226 leukemia, in the test with SF-539 CNS and in the test with SK-OV-3 ovarian was over 100 µM in each case. The TGI in the test with U251 CNS is over 100 µM.
Consider `CC1=CC(=O)/C(=C/N2C(=O)CNC2=S)C(=O)O1`, for which the TGI with DU-145 prostate, in the test with MCF7 breast, in the test with MDA-MB-231 breast, in the test on MOLT-4 leukemia, with OVCAR-8 ovarian and in the test with SF-539 CNS was over 100 µM throughout. For the same compound, the TGI in the test with SK-OV-3 ovarian and in the test on U251 CNS was over 100 µM in each case.
Consider `O=C1/C(=C\c2cccc(Oc3ccccc3)c2)SC(c2ccccc2)N1c1cccc(Cl)c1` (stereo not drawn), for which the TGI with DU-145 prostate, in the test on MDA-MB-231 breast, with MOLT-4 leukemia, in the test on OVCAR-8 ovarian, in the test with RPMI-8226 leukemia and in the test on SK-OV-3 ovarian was over 100 µM in each case. For the same compound, in the test with U251 CNS, the TGI is over 100 µM.
With `N#Cc1c2ccc([N+](=O)[O-])cc2c(=O)n2c1sc1ccccc12`, the TGI with CCRF-CEM leukemia was 34.4 µM; with DU-145 prostate, over 100 µM; with MDA-MB-231 breast, 49.2 µM; in the test on OVCAR-8 ovarian, over 100 µM; in the test with RPMI-8226 leukemia, 40.5 µM; with U251 CNS, 95.4 µM.
Consider `COc1cc2c3cc1Oc1c(OC)c(OC)cc4c1C(Cc1ccc(O)c(c1)-c1cc(ccc1OC)CC3N(C)CC2)N(C)CC4` (stereo not drawn), for which the TGI with DU-145 prostate was over 100 µM; with MCF7 breast it was 49 µM; in the test with MDA-MB-231 breast, 35.4 µM; with MOLT-4 leukemia, 74.2 µM; in the test on OVCAR-8 ovarian it was 46.3 µM; in the test on SF-539 CNS it was 23.4 µM. Moreover, the TGI in the test with SK-OV-3 ovarian and in the test with U251 CNS was over 100 µM throughout.
On to `COc1cc(C2SCC(=O)N2NC(=O)c2ccc(NC(C)=O)cc2OC)ccc1O` (stereo not drawn), for which the TGI with CCRF-CEM leukemia is over 100 µM; with DU-145 prostate it was over 100 µM; in the test with MCF7 breast, over 100 µM; in the test with MOLT-4 leukemia it was over 100 µM; in the test on OVCAR-8 ovarian, 62.9 µM; in the test with RPMI-8226 leukemia, over 100 µM. For the same compound, the TGI with SF-539 CNS is over 100 µM; in the test with SK-OV-3 ovarian it was 26.7 µM.
For the compound `Clc1nc(Nc2nc3ccccc3[nH]2)nc(Cl)c1-c1ccccc1`, the TGI is 66.5 µM in the test on CCRF-CEM leukemia; over 100 µM in the test with DU-145 prostate; 29.1 µM in the test with MDA-MB-231 breast; over 100 µM in the test on MOLT-4 leukemia; 69.4 µM in the test on OVCAR-8 ovarian; over 100 µM in the test on RPMI-8226 leukemia. Also, the TGI is 34.6 µM with SF-539 CNS, 50.5 µM in the test on SK-OV-3 ovarian and 32.7 µM with U251 CNS.
For `NC(Cc1ccc(O)cn1)C(=O)O` (stereo not drawn), the TGI in the test on DU-145 prostate, in the test with MCF7 breast, in the test on MDA-MB-231 breast, in the test with MOLT-4 leukemia, in the test with OVCAR-8 ovarian and in the test with RPMI-8226 leukemia was over 100 µM throughout. For the same compound, the TGI with SF-539 CNS and with U251 CNS was over 100 µM throughout.
In the case of `CS(=O)(=O)CCC(N)P(=O)(O)O` (stereo not drawn), the TGI with CCRF-CEM leukemia, in the test with DU-145 prostate, in the test on MCF7 breast, in the test on MOLT-4 leukemia, in the test with OVCAR-8 ovarian and with RPMI-8226 leukemia was over 100 µM each time. Besides, the TGI with SK-OV-3 ovarian and in the test on U251 CNS was over 100 µM each time.
For `C[C@H](CO)C1=CC(C#C[Si](C)(C)C)N(C(=O)Oc2ccccc2)c2ccccc21` (stereo partly drawn), the TGI in the test on CCRF-CEM leukemia is 53.1 µM; in the test with DU-145 prostate it was 31.7 µM; in the test on MDA-MB-231 breast it was 23.4 µM; in the test on MOLT-4 leukemia, 44 µM; in the test with OVCAR-8 ovarian, 42.9 µM; in the test on RPMI-8226 leukemia it was over 100 µM. Moreover, the TGI amounted to 33.9 µM in the test with SF-539 CNS, 31.1 µM in the test with SK-OV-3 ovarian and 28 µM in the test on U251 CNS.
